# Patent publication US20060058336A1, “Pharmaceutical composition for treatment of drug dependence” (priority 2003, published 2006)
# What was measured:
# IT-tg and IT-wt mice [1] = assay: CPP test of sensitivity to addictive drugs in IT-tg and IT-wt mice
# wild-type mice [2] = assay: Cocaine-induced hyperlocomotion on day 6 after establishment of cocaine dependence, wild-type mice; assay type: in vivo; settings: cocaine 10 mg/kg i.p. daily 5 days, day 6 pretreatment 1 mg/kg 10 min before cocaine, FIG. 5c, P<0.001, P<0.01
# Protocol: Wild-type mice (9-13 weeks) received intraperitoneal injection of cocaine (10 mg/kg) once a day for 5 days. […] On day 6, the mice were pretreated with saline, donepezil (1 mg/kg) or galanthamine (1 mg/kg) 10 min before intraperitoneal injection of cocaine (10 mg/kg), and the cocaine-induced locomotor activity was measured for 10 min (n=5-12 for each group).
# IT-tg and IT-wt mice [3] = assay: Conditioned place aversion (CPA) test, naloxone-precipitated morphine withdrawal; settings: naloxone 1 mg/kg after morphine 50 mg/kg
# IT-tg and IT-wt mice [4] = assay: Morphine withdrawal symptom (jumping) induced by naloxone; settings: naloxone 1 mg/kg 1 hr after morphine 50 mg/kg
# IT-wt and IT-tg mice = assay: Cocaine-induced hyperlocomotion on day 6 in IT-wt and IT-tg mice; assay type: in vivo; settings: cocaine 10 mg/kg daily 5 days, day 6 donepezil 1 mg/kg 10 min before cocaine
# Protocol: Cholinergic cell-eliminated (IT-tg) mice wherein ACh-expressing cells (cholinergic cells) in the NAc were ablated were prepared and used in the experiment for examining the effects of reduction of ACh level in the NAc on sensitivity to an addictive drug (a drug dependence-producing drug). Selective ablation of cholinergic cells in the NAc was conducted through immunotoxin-mediated cell targeting (IMCT) techniques using transgenic mice and anti-Tac(Fv)-PE38 as the immunotoxin (Kobayashi et al., Proc. Natl Acad. Sci. USA 92, 1132-1136 (1995); Watanabe et al., Cell 95, 17-27 (1998)). Anti-Tac (Fv)-PE38 is a recombinant fusion protein composed of a variable region of a monoclonal antibody against human interleukin 2 receptor α subunit (hIL-2Rα) and Pseudomonas exotoxin, and can be purified from E. coli BL21 as described by Chaudhary et al. (Nature 339, 394-397 (1989)). Anti-Tac(Fv)-PE38 is an immunotoxin that can specifically recognize cells expressing hIL-2Rα and inhibits their protein synthesis, thereby eliminating the cells expressing hIL-2Rα. […]
# The present investigation was conducted to examine whether ACh derived from the NAc cholinergic cells is responsible for cocaine-induced hyperlocomotion. […] Their cocaine-induced locomotion was then measured for 10 min (n=7-11 for each group). […]
# wild-type mice [5] = assay: Relapse of cocaine-induced hyperlocomotion after drug deprivation, wild-type mice; assay type: in vivo; settings: cocaine 10 mg/kg 6 days, withheld days 7-11, day 12 donepezil 1 mg/kg 10 min before cocaine, P<0.001 vs saline, FIG. 5e
# Protocol: Drug-induced sensitization caused by continuous daily cocaine administration persists for a long term even after a prolonged period of abstinence from the drug. This is taken seriously as a mechanism of relapse, whereby a drug dependent individual resumes taking a drug after a long-term interruption. The effects of donepezil in blocking relapse of cocaine dependence were examined as follows: Wild-type mice (9-13 weeks) received intraperitoneal injection of cocaine (10 mg/kg) once a day for 6 days and cocaine dependence was established in mice. For 5 days, from day 7 to day 11, mice were withheld from cocaine and were kept in their home cage. On day 12, the mice were pretreated with saline or donepezil (1 mg/kg) 10 min before intraperitoneal injection with cocaine (10 mg/kg). The locomotor activity was then measured for 10 min (n=6 for each group).
# wild-type mice [6] = assay: Cocaine CPP test in wild-type mice; settings: donepezil hydrochloride 1 or 3 mg/kg i.p. (both doses) 20 min before drug, cocaine 10 mg/kg daily, 3 days, P<0.01, FIG. 5a
# wild-type mice [7] = assay: Morphine conditioned place preference (CPP) test in wild-type mice; settings: donepezil hydrochloride 1 or 3 mg/kg i.p. (both doses) 20 min before morphine 5 mg/kg, 3-day conditioning, P<0.01, FIG. 4a
# IT-tg and IT-wt mice [8] = assay: Morphine CPP test in cholinergic cell-eliminated (IT-tg) and IT-wt mice with donepezil pretreatment; assay type: in vivo; settings: donepezil hydrochloride 1 mg/kg i.p. 20 min before morphine 5 mg/kg, 3-day conditioning
# Protocol: (§1) Cholinergic cell-eliminated (IT-tg) mice wherein ACh-expressing cells (cholinergic cells) in the NAc were ablated were prepared and used in the experiment for examining the effects of reduction of ACh level in the NAc on sensitivity to an addictive drug (a drug dependence-producing drug). Selective ablation of cholinergic cells in the NAc was conducted through immunotoxin-mediated cell targeting (IMCT) techniques using transgenic mice and anti-Tac(Fv)-PE38 as the immunotoxin (Kobayashi et al., Proc. Natl Acad. Sci. USA 92, 1132-1136 (1995); Watanabe et al., Cell 95, 17-27 (1998)). […] Anti-Tac(Fv)-PE38 is an immunotoxin that can specifically recognize cells expressing hIL-2Rα and inhibits their protein synthesis, thereby eliminating the cells expressing hIL-2Rα. The present inventors have developed a method for selectively ablating cholinergic cells in the NAc; the method comprising administering anti-Tac(Fv)-PE38 locally to a transgenic mouse whose NAc specifically expressed hIL-2Rα in cholinergic cells. […] Both wild-type and transgenic mice were C57B6/J strain. […] The above-mentioned IT-treated transgenic mouse was used as cholinergic cell-eliminated mouse (IT-tg) in the Experiments and Examples hereinafter described.
# wild-type mice [9] = assay: Development of cocaine-induced locomotor sensitization in wild-type mice; settings: donepezil 1 mg/kg 10 min before daily cocaine 10 mg/kg i.p., 10 min measurement, ANOVA P<0.001, FIG. 5b
# IT-tg mice = assay: Cocaine CPP test in IT-tg mice with ACh receptor agonist pretreatment; assay type: in vivo; settings: methyl atropine 2 mg/kg pretreatment, pilocarpine 100 mg/kg 20 min before cocaine 5 mg/kg, 3 days, P<0.01 vs saline, FIG. 6
# Protocol: as §1
structure (smiles),measurement,setting,value
CN1CC[C@]23c4c5ccc(O)c4O[C@H]2[C@@H](O)C=C[C@H]3[C@H]1C5 [morphine],"place preference for morphine-paired chamber, IT-tg mice, 1 mg/kg","IT-tg and IT-wt mice [1]; IT-tg mice, 3-day conditioning with 1 mg/kg morphine i.p., P<0.05, FIG. 2a",significant preference
same,"place preference for morphine-paired chamber, IT-wt mice, 1 mg/kg","IT-tg and IT-wt mice [1]; IT-wt mice, 3-day conditioning with 1 mg/kg morphine i.p., FIG. 2a",no such preference was observed
same,"place preference for morphine-paired chamber, 5 mg/kg","IT-tg and IT-wt mice [1]; both IT-tg and IT-wt mice, conditioning with 5 mg/kg morphine",exhibited place preference
COc1ccc2c3c1O[C@H]1C[C@@H](O)C=C[C@@]31CCN(C)C2 [galanthamine],cocaine-induced hyperlocomotion on day 6,wild-type mice [2],significantly effective in inhibiting
C=CCN1CC[C@]23c4c5ccc(O)c4O[C@H]2C(=O)CC[C@@]3(O)[C@H]1C5 [naloxone],place aversion to naloxone-paired chamber,"IT-tg and IT-wt mice [3]; both IT-tg and IT-wt morphine-dependent mice, FIG. 2b",exhibited place aversion
same,"place aversion to naloxone-paired chamber, IT-tg vs IT-wt mice","IT-tg and IT-wt mice [3]; morphine-dependent mice, P<0.05, FIG. 2b",stronger place aversion
same,jumping (physical morphine withdrawal symptom),"IT-tg and IT-wt mice [4]; IT-tg and IT-wt morphine-dependent mice, counted over 20 min",observed in both
same,"number of jumps, IT-tg vs IT-wt mice","IT-tg and IT-wt mice [4]; morphine-dependent mice, 20 min, P<0.05, FIG. 3",significantly more number of jumps
COc1cc2c(cc1OC)C(=O)C(CC1CCN(Cc3ccccc3)CC1)C2 (stereo not drawn) [donepezil],effects on cocaine-induced locomotion in IT-tg group,"IT-wt and IT-tg mice; IT-tg mice, FIG. 5d",not observed
same,cocaine-induced abnormal behaviors (locomotor sensitization) in IT-wt group,"IT-wt and IT-tg mice; IT-wt mice, P<0.05, FIG. 5d",significantly decreased
same,abnormal hyperlocomotion after cocaine re-administration on day 12 (relapse),wild-type mice [5],no abnormal hyperlocomotion was observed
same,cocaine-induced hyperlocomotion on day 6,wild-type mice [2],significantly effective in inhibiting
same,degree of cocaine-induced CPP,wild-type mice [6],significantly reduced
same,development of morphine-induced CPP,wild-type mice [7],significantly reduced
same,morphine-induced CPP in IT-tg mice,"IT-tg and IT-wt mice [8]; IT-tg mice, FIG. 4b",failed to suppress
same,morphine-induced CPP in IT-wt mice,"IT-tg and IT-wt mice [8]; IT-wt mice, P<0.01, FIG. 4b",significantly reduced
same,increase in locomotor activity by repeated cocaine administration (locomotor sensitization),wild-type mice [9],no such increase was observed
CC[C@@H]1C(=O)OC[C@@H]1Cc1cncn1C [pilocarpine],development of cocaine-induced CPP in IT-tg mice,IT-tg mice,significantly reduced
